Assay results published in US20140206608A1 (priority 2012, published 2014).
*1 amine or outer side, *2 acyl side, *3 side chain or, on linkers, in order; H or OH if unused. Where a SMILES comes first, the peptide text is derived from it. Side-chain parts run from the residue outwards. [ ]: non-standard residue; d: D form. The star is where a group is joined. γGlu = O=C(O)[C@H](CCC(=O)[*:2])N[*:1]; Stearoyl = CCCCCCCCCCCCCCCCCC(=O)*; Aib = CC(C)(N)C(=O)O

How the values were obtained:
in vivo = details: mouse, plasma, sc, 1 mg/kg
Protocol: Mice were dosed 1 mg/kg subcutaneously (s.c.). The mice were sacrificed and blood samples were collected after 0.25, 0.5, 1, 2, 4, 8, 16 and 24 hours post application. Plasma samples were analyzed after protein precipitation via liquid chromatography mass spectrometry (LC/MS). PK parameters and half-life were calculated using WinonLin Version 5.2.1 (non-compartment model).

[1] = Chemical stability in solution, 7 days at 25° C. (% remaining peptide); type: physicochemical; details: % remaining peptide after 7 days at 25° C.
Excerpt: The chemical stability is expressed as “% remaining peptide”.

female NMRI-mice = assay: Gastric emptying and intestinal passage in female NMRI-mice; type: in vivo
Protocol: Female NMRI-mice of a body weight between 20 and 30 g were used. Mice were adapted to housing conditions for at least one week.
Mice were overnight fasted, while water remained available all the time. On the study day, mice were weighed, single-caged and allowed access to 500 mg of feed for 30 min, while water was removed. At the end of the 30 min feeding period, remaining feed was removed and weighed. Then, the test compound/reference compound or its vehicle in the control group was administered subcutaneously. 60 min later, to allow the compound to reach relevant plasma exposure, a coloured, non-caloric bolus was instilled via gavage into the stomach. After another 30 min, the animals were sacrificed and the stomach and the small intestine prepared. The filled stomach was weighed, emptied, carefully cleaned and dried and reweighed. The stomach content, calculated as weight of filled subtracted by the weight of emptied stomach, indicated the degree of gastric emptying. The small intestine was straightened without force and measured in length. Then the distance from the gastric beginning of the gut to the tip of the farthest travelled intestinal content bolus was measured. The intestinal passage was given as ratio in percent of the latter distance and the total length of the small intestine.
Statistical analyses were performed with Everstat 6.0 by 1-way-ANOVA, followed by Dunnett's as post-hoc test. Dunnett's Test was applied to compare versus vehicle control. Differences were considered statistically significant at the p<0.05 level.
30 min later, the assessment of stomach contents and intestinal passage was done (FIG. 8).

[2] = biological target: T1, human GLP-1 receptor (hGLP-1 R) (Homo sapiens, UniProt P43220); assay: cAMP response of HEK-293 cells stably expressing human GLP-1 receptor (HTRF); type: cell-based; details: EC50 hGLP-1 R, Table 7; cAMP formation
T1 construct: expressed in transfected cells; host or cells: HEK-293
T1 sequence (P43220 24-463): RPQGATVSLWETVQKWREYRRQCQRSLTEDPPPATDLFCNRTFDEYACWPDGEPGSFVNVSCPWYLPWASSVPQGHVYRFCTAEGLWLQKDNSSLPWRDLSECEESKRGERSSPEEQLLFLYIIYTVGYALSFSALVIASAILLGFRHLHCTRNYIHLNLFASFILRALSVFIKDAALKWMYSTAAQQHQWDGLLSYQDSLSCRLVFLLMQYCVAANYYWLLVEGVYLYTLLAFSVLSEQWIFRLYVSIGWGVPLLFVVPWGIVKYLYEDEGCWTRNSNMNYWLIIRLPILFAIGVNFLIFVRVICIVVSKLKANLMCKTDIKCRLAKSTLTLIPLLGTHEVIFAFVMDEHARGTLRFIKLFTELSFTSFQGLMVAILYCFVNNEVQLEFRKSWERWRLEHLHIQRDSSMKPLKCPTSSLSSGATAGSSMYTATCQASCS
Protocol: cAMP content of cells was determined using a kit from Cisbio Corp. (cat. no. 62AM4PEC) based on HTRF (Homogenous Time Resolved Fluorescence). For preparation, cells were split into T175 culture flasks and grown overnight to near confluency in medium (DMEM/10% FBS). Medium was then removed and cells washed with PBS lacking calcium and magnesium, followed by proteinase treatment with accutase (Sigma-Aldrich cat. no. A6964). Detached cells were washed and resuspended in assay buffer (1×HBSS; 20 mM HEPES, 0.1% BSA, 2 mM IBMX) and cellular density determined. They were then diluted to 400000 cells/ml and 25 μl-aliquots dispensed into the wells of 96-well plates. For measurement, 25 μl of test compound in assay buffer was added to the wells, followed by incubation for 30 minutes at room temperature.

[3] = system: female diabetic dbdb-mice; assay: 4 weeks of treatment on glucose, HbA1c and oral glucose tolerance in female diabetic dbdb-mice (method 4); type: in vivo
Protocol: 8 week old, female diabetic dbdb-mice of mean non-fasted glucose value of 14.5 mmol/l and a body weight of 37-40 g were used. Mice were individually marked and were adapted to housing conditions for at least one week.
7 days prior to study start, baseline values for non-fasted glucose and HbA1c were determined, 5 days prior to study start, mice were assigned to groups and cages (5 mice per cage, 10 per group) according to their HbA1c values to ensure even distribution of lower and higher values between groups (stratification).
Mice were treated for 4 weeks, by once daily subcutaneous administration 3 hours prior to the dark phase (6 pm to 6 am). Blood samples from a tail tip incision were obtained for HbA1c on study day 21 and oral glucose tolerance was assessed in the 4th week. Oral glucose tolerance test was done in the morning without prior extra compound administration to majorly assess the effect of chronic treatment and less of acute compound administration. Mice were fasted for 4 hours prior to oral glucose administration (2 g/kg, t=0 min). Blood samples were drawn prior to glucose administration and at 15, 30, 60, 90, 120, and 180 min thereafter. Feed was returned after the last blood sampling. Results are represented as change from baseline, glucose in mmol/l and HbA1c in %.
Statistical analyses are performed with Everstat Version 6.0 based on SAS by 1-way-ANOVA, followed by Dunnett's post-hoc test against vehicle-control. Differences are considered statistically significant at the p<0.05 level.

[4] = 10 μg/kg s.c. once daily, p<0.05

## CCCCCCCCCCCCCCCCCC(=O)N[C@@H](CCC(=O)NCCCC[C@H](NC(=O)[C@H](CCC(N)=O)NC(=O)[C@@H](NC(=O)[C@H](CO)NC(=O)[C@H](CC(C)C)NC(=O)[C@H](CC(=O)O)NC(=O)[C@H](CO)NC(=O)[C@@H](NC(=O)[C@H](Cc1ccccc1)NC(=O)[C@@H](NC(=O)CNC(=O)[C@H](CCC(=O)O)NC(=O)C(C)(C)NC(=O)[C@@H](N)Cc1ccc(O)cc1)[C@@H](C)O)[C@@H](C)O)[C@@H](C)CC)C(=O)N[C@@H](CCC(=O)O)C(=O)N[C@@H](CCC(=O)O)C(=O)N[C@@H](CCC(=O)O)C(=O)N[C@@H](C)C(=O)N[C@H](C(=O)N[C@@H](CCCNC(=N)N)C(=O)N[C@@H](CC(C)C)C(=O)N[C@@H](Cc1ccccc1)C(=O)N[C@H](C(=O)N[C@@H](CCC(=O)O)C(=O)N[C@@H](Cc1c[nH]c2ccccc12)C(=O)N[C@@H](CC(C)C)C(=O)N[C@@H](CCCCN)C(=O)N[C@@H](C)C(=O)NCC(=O)NCC(=O)N1CCC[C@H]1C(=O)N[C@@H](CO)C(=O)N[C@@H](CO)C(=O)NCC(=O)N[C@@H](C)C(=O)N1CCC[C@H]1C(=O)N1CCC[C@H]1C(=O)N1CCC[C@H]1C(=O)N[C@@H](CO)C(N)=O)[C@@H](C)CC)C(C)C)C(=O)O [SEQ ID NO: 10, Y-Aib-E-G-T-F-T-S-D-L-S-I-Q-K(γE-x70)-EEEAVRLFIEWLKAGGPSSGAPPPS-NH2] (H-Y[Aib]EGTFTSDLSIQK([γGlu-Stearoyl])EEEAVRLFIEWLKAGGPSSGAPPPS-NH2)
In vivo
  Cmax: 5740 ng/mL
  half-life: 4.3 h
[1]; pH 4.5
  Stability (pH 4.5): 99.0%
[1]; pH 7.4
  Stability (pH 7.4): 97.0%
Female NMRI-mice; 1 μg/kg s.c.
  increase of remaining gastric contents: 1%
  reduction of intestinal passage: 28%
Female NMRI-mice; 10 μg/kg s.c.
  increase of remaining gastric contents: 28%
  reduction of intestinal passage: 58%
Female NMRI-mice; 100 μg/kg s.c.
  increase of remaining gastric contents: 68%
  reduction of intestinal passage: 64%
[2]
  EC50: 0.0125 nM
[3]; 10 μg/kg s.c. once daily
  non-fasted glucose compared to vehicle control: tended to reduce non-fasted glucose
[3]; [4]
  HbA1c compared to vehicle control: prevented an increase of HbA1c in a statistical significant manner
  reduction of AUC under the glucose curve compared to vehicle control: reached statistical significance
[3]; 3 and 10 μg/kg s.c. once daily
  oral glucose tolerance: improved oral glucose tolerance
